As a reminder, the inhibition is the share of the control response that was lost under treatment.

The values below come from US10077261B2, “Imidazolin-5-one derivative useful as FASN inhibitors for the treatment of cancer” (Janssen Pharmaceutica NV, priority 2012, dated 2018).

This experiment deals with T1, hFASN enzyme (full length) (Homo sapiens, UniProt P49327).
T1 construct: 10 μL hFASN enzyme (full length, 300 ng, purified in house); made in house
In words: Fatty Acid Synthase (FASN) inhibition scintillation proximity assay. Format: biochemical. The following applies: for IC50: read-out: Human FASN pIC50 (converted). On the procedure:
In this assay, inhibition of FASN activity is measured using ^3H-acetyl-CoA and malonyl-CoA as substrates. ^3H-Acetyl CoA is converted to ^3H-palmitate through a series of reactions by the FASN protein, which contains 7 functional domains and carries out 7 enzymatic reactions to ultimately produce ^3H-palmitate. The assay principle is based upon the fact that ^3H-acetyl-CoA is hydrophilic and the end product, ^3H-palmitate is hydrophobic.
10 μL assay buffer (100 mM KH2PO4 pH 7.5, 1 mM DTT) (20 μL in blanks) was added to a 384-well white optiplate plate (Perkin Elmer). 0.9 μL test compound (at concentrations of 30 μM, 10 μM, 3 μM, 1 μM, 0.30 μM, 0.10 μM, 0.03 μM and 0.01 μM)/DMSO and 10 μL hFASN enzyme (full length, 300 ng, purified in house) or 10 μL assay buffer was added to the wells. […] The reaction was stopped by adding 20 μL Streptavidin coupled imaging beads (25 mg/ml). After incubation for 30 minutes at room temperature in the dark, the 384 well plate was centrifuged at 1500 rpm for 3 minutes and was measured after at least 24 hrs by the LEADseeker™, measuring emission using a 610±20 nm pass filter.
where mLC and mHC were the means of the low control wells and high control wells on the plate, after manual exclusion of outliers. A plot of Controlmin versus test compound concentration was fitted to a 4-parameter logistic curve using a non-linear least squares regression method.
(In general: In a scintillation proximity assay essentially only radioactivity close to the scintillant gives light.)

[1] abbreviates: read-out: Human FASN % inhibition @ 10 μM, 10 μM test compound.

Like-named read-outs stand apart in the source and are kept apart here. Bounds are passed on as bounds.

T1 sequence (P49327 whole entry): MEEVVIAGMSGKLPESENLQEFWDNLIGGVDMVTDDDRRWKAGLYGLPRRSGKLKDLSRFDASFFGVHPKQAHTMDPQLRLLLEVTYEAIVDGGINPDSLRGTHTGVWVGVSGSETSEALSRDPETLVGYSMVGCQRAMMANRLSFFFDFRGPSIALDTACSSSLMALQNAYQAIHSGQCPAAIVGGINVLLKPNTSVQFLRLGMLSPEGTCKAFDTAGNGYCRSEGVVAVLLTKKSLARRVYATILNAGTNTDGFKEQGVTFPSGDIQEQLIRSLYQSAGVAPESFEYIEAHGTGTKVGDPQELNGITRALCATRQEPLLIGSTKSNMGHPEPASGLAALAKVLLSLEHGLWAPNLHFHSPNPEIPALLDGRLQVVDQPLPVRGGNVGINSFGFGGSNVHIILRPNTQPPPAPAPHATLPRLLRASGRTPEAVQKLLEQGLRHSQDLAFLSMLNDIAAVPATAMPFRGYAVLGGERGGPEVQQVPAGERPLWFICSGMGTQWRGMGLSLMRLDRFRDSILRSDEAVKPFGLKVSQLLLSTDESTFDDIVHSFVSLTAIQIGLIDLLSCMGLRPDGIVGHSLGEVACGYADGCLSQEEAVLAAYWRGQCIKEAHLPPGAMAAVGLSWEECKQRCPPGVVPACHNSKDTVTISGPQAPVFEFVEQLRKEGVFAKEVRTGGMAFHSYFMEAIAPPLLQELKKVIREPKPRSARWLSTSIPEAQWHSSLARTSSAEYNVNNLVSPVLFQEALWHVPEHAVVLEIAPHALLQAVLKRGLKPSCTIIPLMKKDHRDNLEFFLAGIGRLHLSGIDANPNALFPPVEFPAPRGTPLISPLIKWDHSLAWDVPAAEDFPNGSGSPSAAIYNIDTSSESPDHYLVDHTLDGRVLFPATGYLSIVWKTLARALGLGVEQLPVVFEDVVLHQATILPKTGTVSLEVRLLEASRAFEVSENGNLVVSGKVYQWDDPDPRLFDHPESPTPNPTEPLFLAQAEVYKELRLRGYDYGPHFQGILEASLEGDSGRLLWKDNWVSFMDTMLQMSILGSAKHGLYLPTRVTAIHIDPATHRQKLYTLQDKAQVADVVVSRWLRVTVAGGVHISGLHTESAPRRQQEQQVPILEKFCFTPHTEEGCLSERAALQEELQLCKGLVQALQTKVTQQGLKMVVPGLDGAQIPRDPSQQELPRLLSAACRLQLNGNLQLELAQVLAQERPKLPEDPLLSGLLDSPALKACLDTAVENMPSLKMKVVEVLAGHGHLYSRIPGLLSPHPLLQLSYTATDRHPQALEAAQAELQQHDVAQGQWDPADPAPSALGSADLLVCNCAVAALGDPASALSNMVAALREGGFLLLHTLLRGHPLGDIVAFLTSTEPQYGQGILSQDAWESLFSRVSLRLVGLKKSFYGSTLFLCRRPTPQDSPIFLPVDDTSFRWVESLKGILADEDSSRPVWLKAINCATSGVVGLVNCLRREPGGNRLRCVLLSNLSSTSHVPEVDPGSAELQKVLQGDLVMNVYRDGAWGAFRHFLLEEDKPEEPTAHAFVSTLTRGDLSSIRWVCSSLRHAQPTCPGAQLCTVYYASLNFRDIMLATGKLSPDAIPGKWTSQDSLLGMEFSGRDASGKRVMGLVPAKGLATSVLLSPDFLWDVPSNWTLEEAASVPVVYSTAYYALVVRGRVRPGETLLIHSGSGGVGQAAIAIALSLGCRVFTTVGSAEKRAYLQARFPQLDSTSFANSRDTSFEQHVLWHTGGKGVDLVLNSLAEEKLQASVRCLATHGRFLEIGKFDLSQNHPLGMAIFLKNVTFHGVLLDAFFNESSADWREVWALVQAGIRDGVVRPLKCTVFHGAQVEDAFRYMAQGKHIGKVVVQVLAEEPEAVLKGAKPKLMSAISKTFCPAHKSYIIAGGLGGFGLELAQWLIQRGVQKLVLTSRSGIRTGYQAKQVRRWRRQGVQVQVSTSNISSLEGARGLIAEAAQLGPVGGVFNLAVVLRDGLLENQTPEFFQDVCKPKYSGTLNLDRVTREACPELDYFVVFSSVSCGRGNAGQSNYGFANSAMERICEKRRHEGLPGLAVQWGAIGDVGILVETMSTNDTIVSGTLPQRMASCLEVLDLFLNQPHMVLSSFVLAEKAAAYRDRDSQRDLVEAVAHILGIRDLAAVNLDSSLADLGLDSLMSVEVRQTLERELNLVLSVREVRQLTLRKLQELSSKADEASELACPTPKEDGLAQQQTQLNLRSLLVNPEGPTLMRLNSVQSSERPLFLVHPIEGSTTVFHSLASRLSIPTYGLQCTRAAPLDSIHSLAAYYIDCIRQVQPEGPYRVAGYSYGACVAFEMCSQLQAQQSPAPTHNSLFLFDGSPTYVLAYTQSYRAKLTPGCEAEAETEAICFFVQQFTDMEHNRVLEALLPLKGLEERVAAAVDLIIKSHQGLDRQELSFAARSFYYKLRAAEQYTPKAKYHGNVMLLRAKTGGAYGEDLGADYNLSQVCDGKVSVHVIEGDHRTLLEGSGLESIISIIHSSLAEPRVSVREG

Regarding `O=CNc1cc(-c2ccc(C3=NC4(CC4)C(=O)N3CC3CN(C(=O)C4CC4)C3)cc2)ccc1O` [compound 54, N-[4′-(6-{[-(Cyclopropylcarbonyl)azetidin-3-yl]methyl}-7-oxo-4,6-diazaspiro[2.4]hept-4-en-5-yl)-4-hydroxybiphenyl-3-yl]formamide], the IC50 was 4.68 µM. In addition, the inhibition at 10 µM under setting [1] was found to be 64.7%.
For `O=C(C1CC1)N1CCC(CN2C(=O)C3(CC3)N=C2c2ccc(-c3ccc(O)cc3)cc2)CC1` [compound 55, 6-{[1-(Cyclopropylcarbonyl)piperidin-4-yl]methyl}-5-(4′-hydroxybiphenyl-4-yl)-4,6-diazaspiro[2.4]hept-4-en-7-one], in that order: more than 10 µM and 32.7%.
For `O=C(C1CC1)N1CCC(CN2C(=O)C3(CC3)N=C2c2ccc(-c3ccc(-c4ccncc4)cc3)cc2)CC1` [compound 61, 6-{[1-(Cyclopropylcarbonyl)piperidin-4-yl]methyl}-5-(4′-pyridin-4-ylbiphenyl-4-yl)-4,6-diazaspiro[2.4]hept-4-en-7-one], the IC50 was 3.98 µM. For the same compound, the inhibition at 10 µM under setting [1] turned out to be 63.2%.
The like results for `Cn1nccc1-c1ccc(-c2ccc(C3=NC4(CC4)C(=O)N3CC3CCN(C(=O)C4CC4)CC3)cc2)cc1` [compound 62, 6-{[1-(Cyclopropylcarbonyl)piperidin-4-yl]methyl}-5-[4′-(1-methyl-1H-pyrazol-5-yl)biphenyl-4-yl]-4,6-diazaspiro[2.4]hept-4-en-7-one] were, in that order, more than 10 µM and 29.3%.
For `N#Cc1cccc(-c2ccc(C3=NC4(CCCC4)C(=O)N3C[C@@H]3CCN(C(=O)C4CC4)C3)cc2)c1` [compound 83, 4′-(3-{[(3R)-1-(Cyclopropylcarbonyl)pyrrolidin-3-yl]methyl}-4-oxo-1,3-diazaspiro[4.4]non-1-en-2-yl)biphenyl-3-carbonitrile], in that order: 4.79 µM and 65.6%.
The like results for `CS(=O)(=O)Nc1cccc(-c2ccc(C3=NC4(CCCC4)C(=O)N3C[C@@H]3CCN(C(=O)C4CC4)C3)cc2)c1` [compound 84, N-[4′-(3-{(3R)-1-(Cyclopropylcarbonyl)pyrrolidin-3-yl]methyl}-4-oxo-1,3-diazaspiro[4.4non-1-en-2-yl)biphenyl-3-yl]methanesulfonamide] were, in that order, 1 µM and 89.2%.
Regarding `O=C(C1CC1)N1CC[C@@H](CN2C(=O)C3(CCCC3)N=C2c2ccc(-c3ccc(-c4nn[nH]n4)cc3)cc2)C1` [compound 91, 3-{[(3R)-1-(Cycloprropylcarbonyl)pyrrolidin-3-yl]methyl}-2-[4′-(2H-tetrazol-5-yl)biphenyl-4-yl]-1,3-diazaspiro[4.4]non-1-en-4-one], the IC50 is more than 10 µM. Also, the inhibition at 10 µM under setting [1] worked out at 21.3%.
For `NC(=O)CN1CC[C@@H](CN2C(=O)C3(CCN(Cc4ccccc4)CC3)N=C2c2ccc(-c3ccc4occc4c3)cc2)C1` [compound 95, 2-[(3R)-3-({2-[4-(1-Benzofuran-5-yl)phenyl]-8-benzyl-4-oxo-1,3,8-triazaspiro[4.5]dec-1-en-3-yl}methyl)pyrrolidin-1-yl]acetamide], in that order: more than 10 µM and 24.4%.
For `O=C(CN1CC[C@@H](CN2C(=O)C3(CCN(Cc4ccccc4)CC3)N=C2c2ccc(-c3ccc4occc4c3)cc2)C1)C1CC1` [compound 96, 2-[4-(1-Benzofuran-5-yl)phenyl]-8-benzyl-3-{[(3R)-1-(2-cyclopropyl-2-oxoethyl)pyrrolidin-3-yl]methyl}-1,3,8-triazaspiro[4.5]dec-1-en-4-one], in that order: 5.01 µM and 71.2%.
With `Cc1ccc(-c2ccc(C3=NC4(CC4)C(=O)N3CC3CCN(C(=O)C4CC4)CC3)cc2)cc1` [compound 97, 6-{[1-(Cyclopropylcarbonyl)piperidin-4-yl]methyl}-5-(4′-methylbiphenyl-4-yl)-4,6-diazaspiro[2.4]hept-4-en-7-one], the IC50 is 5.62 µM. In addition, the inhibition at 10 µM under setting [1] came to 58.7%.
The like results for `COc1ccccc1-c1ccc(C2=NC3(CC3)C(=O)N2CC2CCN(C(=O)C3CC3)CC2)cc1` [compound 98, 6-{[1-(Cyclopropylcarbonyl)piperidin-4-yl]methyl}-5-(2′-methoxybiphenyl-4-yl)-4,6-diazaspiro[2.4]hept-4-en-7-one] were, in that order, more than 10 µM and 35.1%.
Turning to `COc1ccc(-c2ccc(C3=NC4(CC4)C(=O)N3CC3CCN(C(=O)C4CC4)CC3)cc2)cc1` [compound 99], the IC50 was 4.68 µM. In addition, the inhibition at 10 µM under setting [1] is 61.4%.
As to `O=C(C1CC1)N1CC[C@@H](CN2C(=O)C3(CC3)N=C2c2ccc(-c3ccc(C(F)(F)F)cc3)cc2)C1` [compound 104, 6-{[(3R)-1-(Cyclopropylcarbonyl)pyrrolidin-3-yl]methyl}-5-[4′-(trifluoromethyl)biphenyl-4-yl]-4,6-diazaspiro[2.4]hept-4-en-7-one], the IC50 is 3.24 µM. For the same compound, under setting [1], the inhibition at 10 µM was 71.7%.
Take `O=C(C1CC1)N1CCC(CN2C(=O)C3(CC3)N=C2c2ccc(-c3ccc(C(F)(F)F)cc3)cc2)CC1` [compound 107, 6-{[1-(Cyclopropylcarbonyl)piperidin-4-yl]methyl}-5-[4′-(trifluoromethyl)biphenyl-4-yl]-4,6-diazaspiro[2.4]hept-4-en-7-one]: the IC50 was more than 10 µM. Also, under setting [1], the inhibition at 10 µM came out at 10.6%.
For `O=C(C1CC1)N1CCC(CN2C(=O)C3(CC3)N=C2c2ccc(-c3cccc(O)c3)cc2)CC1` [compound 108, 6-{[1-(Cyclopropylcarbonyl)piperidin-4-yl]methyl}-5-(3′-hydroxybiphenyl-4-yl)-4,6-diazaspiro[2.4]hept-4-en-7-one], in that order: 1.51 µM and 83.8%.
For `O=C(C1CC1)N1CCC(CN2C(=O)C3(CC3)N=C2c2ccc(-c3ccc(Cl)cc3)cc2)CC1` [compound 109, 5-(4′-Chlorobiphenyl-4-yl)-6-{[1-(cyclopropylcarbonyl)piperidin-4-yl]methyl}-4,6-diazaspiro[2.4]hept-4-en-7-one], in that order: 5.13 µM and 62.1%.
As for `O=C(C1CC1)N1CCC(CN2C(=O)C3(CC3)N=C2c2ccc(-c3ccc(F)cc3)cc2)CC1` [compound 110, 6-{[1-(Cyclopropylcarbonyl)piperidin-4-yl]methyl}-5-(4′-fluorobiphenyl-4-yl)-diazaspiro[2.4]hept-4-en-7-one], the IC50 is more than 10 µM. Also, the inhibition at 10 µM (read-out: Human FASN % inhibition @ 10 μM) was determined as 32.6%.
On to `Cc1cccc(-c2ccc(C3=NC4(CC4)C(=O)N3CC3CCN(C(=O)C4CC4)CC3)cc2)c1` [compound 111, 6-{[1-(Cyclopropylcarbonyl)piperidin-4-yl]methyl}-5-(3′-methylbiphenyl-4-yl)-4,6-diazaspiro[2.4]hept-4-en-7-one], for which the IC50 is 4.37 µM. For the same compound, the inhibition at 10 µM under setting [1] was found to be 62.2%.
For `N#Cc1cccc(-c2ccc(C3=NC4(CC4)C(=O)N3C[C@@H]3CCN(C(=O)C4CC4)C3)cc2)c1` [compound 123, 4′-(6-{[(3R)-1-(Cyclopropylcarbonyl)pyrrolidin-3-yl]methyl}-7-oxo-4,6-diazaspiro[2.4]hept-4-en-5-yl)biphenyl-3-carbonitrile], in that order: 1.26 µM and 81.5%.
The like results for `O=C(C1CC1)N1CC[C@@H](CN2C(=O)C3(CC3)N=C2c2ccc(-c3ccc(OC(F)(F)F)cc3)cc2)C1` [compound 125, 6-{[(3R)-1-(Cyclopropylcarbonyl)pyrrolidin-3-yl]methyl}-5-[4′-(trifluoromethoxy)biphenyl-4-yl]-4,6-diazaspiro[2.4]hept-4-en-7-one] were, in that order, 3.98 µM and 64.6%.
For `CC(C)C(=O)N1CCC2(CC1)N=C(c1ccc(-c3ccc4occc4c3)cc1)N(CC1CN(C(=O)C3CC3)C1)C2=O` [compound 129, 2-[4-(1-Benzofuran-5-yl)phenyl]-3-{[1-(cyclopropylcarbonyl)azetidin-3-yl]methyl}-8-(2-methylpropanoyl)-1,3,8-triazaspiro[4.5]dec-1-en-4-one], in that order: 1.17 µM and 90.7%.
For the compound `O=C(C1CC1)N1CC(CN2C(=O)C3(CCNCC3)N=C2c2ccc(-c3ccc4occc4c3)cc2)C1` [compound 130, 2-[4-(1-Benzofuran-5-yl)phenyl]-3-{[1-(cyclopropylcarbonyl)azetidin-3-yl]methyl}-1,3,8-triazaspiro[4.5]dec-1-en-4-one], the IC50 was 3.8 µM. Further, under setting [1], the inhibition at 10 µM is 74%.
As to `Cn1ncc2cc(-c3ccc(C4=NC5(CCNCC5)C(=O)N4CC4CN(C(=O)C5CC5)C4)cc3)ccc21` [compound 131, 3-{[1-(Cyclopropylcarbonyl)azetidin-3-yl]methyl}-2-[4-(1-methyl-1H-indazol-5-yl)phenyl]-1,3,8-triazaspiro[4.5]dec-1-en-4-one], the IC50 was 8.91 µM. For the same compound, under setting [1], the inhibition at 10 µM was 52.1%.
